Experimental data from patent US11065253B2, “Arylquinazolines” (Merck Patent GmbH, priority 2013, dated 2021).
Where two headings read alike, the source gives them in different places. Values belong to the compound of their own block, whether it stands above or below them.

System: phospho-serine 2056 DNA-PK in HCT116 cells
Assay: DNA-PK phosphorylation at serine 2056 (cellular), ELISA in bleomycin-treated HCT116 cells
Assay type: cell-based
Conditions: read-out: IC50 pDNA-PK
Procedure, shortened: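 After overnight seeding, HCT116 cells received compound with 10 μM bleomycin for 6 h; phospho-DNA-PK ELISA signals were scaled to total DNA-PKcs, DMSO serving as blank.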

[1] = phospho-serine 2056 DNA-PK, bleomycin-treated HCT116 cells
[2] = Homo sapiens, HCT-116, cellular DNA-PK phosphorylation at serine 2056, HCT116 cells
[3] = Homo sapiens, HCT-116, phospho-serine 2056 DNA-PK, bleomycin-treated HCT116 cells
[4] = Homo sapiens, HCT-116, phospho-serine 2056 DNA-PK, bleomycin-treated HCT116 cells, class symbols A-D
[5] = Homo sapiens, HCT-116, 6 h, cellular, HCT116 cells, 10 μM bleomycin, six hours
[6] = cellular DNA-PK phosphorylation at serine 2056, HCT116 cells

- IC50 [1]: 500 to 5000 nM
SMILES: OC(c1ccc(F)c(-c2ncnc3cc(N4CCOCC4)ccc23)c1)c1nnc2ccccn12 (centres unmarked) [Example 343, [4-Fluoro-3-(7-morpholin-4-yl-quinazolin-4-yl)-phenyl]-[1,2,4]-triazolo[4,3-a]pyridin-3-ylmethanol (Ena 2)]

- IC50 (cellular, HCT116 cells, 10 μM bleomycin, six hours): < 500 nM
SMILES: OC(c1cccnn1)c1cc(-c2ncnc3cc(N4CCOCC4)ccc23)c(F)cc1Cl (centres unmarked) [Example 30, [2-Chloro-4-fluoro-5-(7-morpholin-4-yl-quinazolin-4-yl)phenyl]-pyridazin-3-ylmethanol]

- IC50 [2]: 500 to 5000 nM
SMILES: OC(c1ccc(F)c(-c2ncnc3cc(N4CCOCC4)ccc23)c1)c1nnc2ccccn12 (centres unmarked) [Example 399, [4-Fluoro-3-(7-morpholin-4-yl-quinazolin-4-yl)-phenyl]-[1,2,4]-triazolo[4,3-a]pyridin-3-ylmethanol]

- IC50 [3]: 10000 to 30000 nM
SMILES: NC(=O)C(c1cccnc1)c1cc(-c2ncnc3cc(N4CCOCC4)ccc23)c(F)cc1F (centres unmarked) [Example 294, 2-[2,4-Difluoro-5-(7-morpholin-4-yl-quinazolin-4-yl)-phenyl]-2-pyridin-3-ylacetamide]

- IC50 [3]: < 500 nM
SMILES: OC(c1cc(-c2ncnc3cc(N4CCOCC4)ccc23)c(F)cc1Cl)c1nccn2cccc12 (centres unmarked) [Example 359, [2-Chloro-4-fluoro-5-(7-morpholin-4-yl-quinazolin-4-yl)-phenyl]pyrrolo[1,2-a]-pyrazin-1-ylmethanol]

- IC50 [4]: 10000 to 30000 nM
SMILES: Cc1nc(C(O)c2cnc(F)c(-c3ncnc4cc(N5CCOCC5)ncc34)c2)sc1C (centres unmarked) [Example 196, (4,5-Dimethyl-thiazol-2-yl)-[6-fluoro-5-(7-morpholin-4-yl-pyrido[4,3-d}-pyrimidin-4-yl)-pyridin-3-yl]-methanol]

- IC50 (phospho-serine 2056 DNA-PK, bleomycin-treated HCT116 cells, class symbols A-D): 500 to 5000 nM
SMILES: OC(c1ccc(F)c(-c2ncnc3cc(N4CCOCC4)sc23)c1)c1nccs1 (centres unmarked) [Example 146, [4-Fluoro-3-(6-morpholin-4-yl-thieno[3,2-d}-pyrimidin-4-yl)-phenyl]thiazol-2-yl-methanol]

- IC50 [5]: < 500 nM
SMILES: COc1cnc(Cl)c(C(O)c2ccc(F)c(-c3ncnc4cc(N5CCOCC5)ccc34)c2)c1 (centres unmarked) [Example 22, (2-Chloro-5-methoxy-pyridin-3-yl)-[4-fluoro-3-(7-morpholin-4-yl-quinazolin-4-yl)phenyl]-methanol]

- IC50 [2]: 10000 to 30000 nM
SMILES: CN1CCN(c2nccnc2C(O)c2ccc(F)c(-c3ncnc4cc(N5CCOCC5)ccc34)c2)C1=O (centres unmarked) [Example 424, 1-(3-{[4-Fluoro-3-(7-morpholin-4-yl-quinazolin-4-yl)-phenyl]hydroxy-methyl}pyrazin-2-yl)-3-methyl-imidazolidin-2-one]

- IC50 [5]: < 500 nM
SMILES: COc1cc(Cl)nnc1C(O)c1ccc(F)c(-c2ncnc3cc(N4CCOCC4)ccc23)c1 (centres unmarked) [Example 10, (6-Chloro-4-methoxy-pyridazin-3-yl)-[4-fluoro-3-(7-morpholin-4-yl-quinazolin-4-yl)phenyl]-methanol]

- IC50 [5]: < 500 nM
SMILES: OC(c1ccc(F)c(-c2ncnc3cc(N4CCOCC4)ccc23)c1)c1nccnc1Cl (centres unmarked) [Example 54, (3-Chloro-pyrazin-2-yl)-[4-fluoro-3-(7-morpholin-4-yl-quinazolin-4-yl)phenyl]-methanol]

- IC50 [1]: 500 to 5000 nM
SMILES: Cn1cnc2c(C(O)c3cc(-c4ncnc5cc(N6CCOCC6)ccc45)c(F)cc3F)ncnc21 (centres unmarked) [Example 347, [2,4-Difluoro-5-(7-morpholin-4-yl-quinazolin-4-yl)-phenyl]-(9-methyl-9H-purin-6-yl)-methanol (Ena 1)]

- IC50 [3]: < 500 nM
SMILES: OC(c1ccc(F)c(-c2ncnc3cc(N4CCOCC4)ccc23)c1)c1ncnn2cccc12 (centres unmarked) [Example 345, [4-Fluoro-3-(7-morpholin-4-yl-quinazolin-4-yl)-phenyl]pyrrolo[2,1-f]-[1,2,4]triazin-4-yl-methanol]

- IC50 [5]: 5000 to 10000 nM
SMILES: COC(=O)c1ccc(C(O)c2cc(-c3ncnc4cc(N5CCOCC5)ccc34)c(F)cc2Cl)nn1 (centres unmarked) [Example 58, 6-{[2-Chloro-4-fluoro-5-(7-morpholin-4-yl-quinazolin-4-yl)phenyl]-hydroxymethyl}-pyridazine-3-carboxylic acid methyl ester]

- IC50 [6]: < 500 nM
SMILES: O[C@@H](c1cc(-c2ncnc3cc(N4CCOCC4)ccc23)c(F)cc1Cl)c1nccn2ccnc12 (single isomer, unassigned) [Example 396]

- IC50 [6]: < 500 nM
SMILES: OC(c1ccc(F)c(-c2ncnc3cc(N4CCOCC4)ccc23)c1)c1ncnc2occc12 (centres unmarked) [Example 434, [4-Fluoro-3-(7-morpholin-4-yl-quinazolin-4-yl)-phenyl]furo[2,3-d}-pyrimidin-4-yl-methanol]

- IC50 [1]: 500 to 5000 nM
SMILES: [2H]C1([2H])OC([2H])([2H])C([2H])([2H])N(c2ccc3c(-c4cc([C@H](O)c5nccnc5C)ccc4F)ncnc3c2)C1([2H])[2H] [Example 243, (S)-[4-Fluoro-3-[7-(2,2,3,3,5,5,6,6-octadeuterio-morpholin-4-yl)quinazolin-4-yl]phenyl]-(3-methylpyrazin-2-yl)methanol]

- IC50 [2]: < 500 nM
SMILES: Cn1ncc2c(C(O)c3ccc(F)c(-c4ncnc5cc(N6CCOCC6)ccc45)c3)ncnc21 (centres unmarked) [Example 404, [4-Fluoro-3-(7-morpholin-4-yl-quinazolin-4-yl)-phenyl]-(1-methyl-1H-pyrazolo[3,4-d}-pyrimidin-4-yl)-methanol]

SMILES: COc1ccc(C(O)c2ccc(F)c(-c3ncnc4cc(N5CCOCC5)cc(F)c34)c2)nn1 (centres unmarked) [Example 260, [4-Fluoro-3-(5-fluoro-7-morpholin-4-yl-quinazolin-4-yl)-phenyl]-(6-methoxy-pyridazin-3-yl)-methanol]
- IC50 [1]: < 500 nM

- IC50 [3]: 5000 to 10000 nM
SMILES: Cc1cncc(C(O)c2ccc(F)c(-c3ncnc4cc(N5CCOCC5)ccc34)c2)n1 (centres unmarked) [Example 296, [4-Fluoro-3-(7-morpholin-4-yl-quinazolin-4-yl)-phenyl]-(6-methyl-pyrazin-2-yl)-methanol]

- IC50 [2]: 5000 to 10000 nM
SMILES: OC(c1cc(-c2ncnc3cc(N4CCOCC4)ccc23)ccc1Cl)c1nccn2ccnc12 (centres unmarked) [Example 369, [2-Chloro-5-(7-morpholin-4-yl-quinazolin-4-yl)-phenyl]imidazo-[1,2-a]pyrazin-8-yl-methanol]

- IC50 [5]: < 500 nM
SMILES: Cn1c(C(O)c2ccc(F)c(-c3ncnc4cc(N5CCOCC5)ccc34)c2)cccc1=O (centres unmarked) [Example 91, 6-{[4-Fluoro-3-(7-morpholin-4-yl-quinazolin-4-yl)-phenyl]hydroxy-methyl}-1-methyl-1H-pyridin-2-one]

- IC50 [2]: 500 to 5000 nM
SMILES: COc1cncnc1C(O)c1cc(-c2ncnc3cc(N4CCOCC4)ccc23)c(F)cc1F (centres unmarked) [Example 448, [2,4-Difluoro-5-(7-morpholin-4-yl-quinazolin-4-yl)-phenyl]-(5-methoxy-pyrimidin-4-yl)-methanol]

- IC50 [2]: 500 to 5000 nM
SMILES: Cn1cnc2ncnc(C(O)c3ccc(F)c(-c4ncnc5cc(N6CCOCC6)ccc45)c3)c21 (centres unmarked) [Example 433, [4-Fluoro-3-(7-morpholin-4-yl-quinazolin-4-yl)-phenyl]-(7-methyl-7H-purin-6-yl)-methanol]

- IC50 [3]: < 500 nM
SMILES: OC(c1ccc(F)c(-c2ncnc3cc(N4CCOCC4)ccc23)c1)c1nccc2ccoc12 (centres unmarked) [Example 328, [4-Fluoro-3-(7-morpholin-4-yl-quinazolin-4-yl)-phenyl]furo[2,3-c]-pyridin-7-ylmethanol]

- IC50 [4]: 500 to 5000 nM
SMILES: Nc1nccnc1C(O)c1cc(-c2ncnc3cc(N4CCOCC4)ccc23)c(F)cc1Cl (centres unmarked) [Example 117, (3-Amino-pyrazin-2-yl)-[2-chloro-4-fluoro-5-(7-morpholin-4-yl-quinazolin-4-yl)-phenyl]methanol]
